Data from US8163771B2, “11 β-HSD1 modulators” (Exelixis, Inc., priority 2008, dated 2012).
pIC50: −log10 of the molar value.

Each compound was assayed against T1, recombinant human 11 β-HSD1 (Homo sapiens, UniProt P28845) (assay: 11 β-HSD1 SPA Assay (Scintillation Proximity Assay)).
T1 construct: made in house; host or cells: E. coli
T1 sequence (P28845 whole entry): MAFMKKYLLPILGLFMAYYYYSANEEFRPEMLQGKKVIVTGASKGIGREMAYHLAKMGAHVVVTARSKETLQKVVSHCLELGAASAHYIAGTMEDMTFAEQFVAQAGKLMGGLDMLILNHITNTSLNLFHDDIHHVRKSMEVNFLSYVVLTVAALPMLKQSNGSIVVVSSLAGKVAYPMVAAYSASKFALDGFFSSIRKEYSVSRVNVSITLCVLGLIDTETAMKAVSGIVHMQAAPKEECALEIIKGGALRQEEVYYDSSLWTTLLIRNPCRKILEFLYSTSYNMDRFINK
Format: biochemical
Procedure, shortened: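 E. coli-expressed human enzyme (30-100 nM) with tritiated cortisone 40 nM and NADPH 1 mM in HEPES buffer pH7.4, 2 hours at room temperature. Stopped with protein A SPA beads carrying anti-cortisol antibody and glycyrrhetinic acid; counted after overnight incubation. IC50 from percent inhibition between no-enzyme and no-compound signals.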
In the case of `O=C(NC1CC1)c1ccc(N2[C@@H]3CC[C@H]2C[C@@H](NC(=O)C2(c4ccc(Cl)cc4)CC2)C3)c(Cl)c1` [Example 118, 3-chloro-4-[3-endo-({[1-(4-chlorophenyl)cyclopropyl]carbonyl}amino)-8-azabicyclo[3.2.1]oct-8-yl]-N-cyclopropylbenzamide], the pIC50 was over 6.70.
Compound `CC(C)(Oc1ccc(Cl)cc1-c1ccc(F)cc1)C(=O)N[C@H]1C[C@H]2CC[C@@H](C1)N2c1ccc(C(N)=O)cn1` [Example 277, 6-[3-endo-({2-[(5-chloro-4′-fluorobiphenyl-2-yl)oxy]-2-methylpropanoyl}amino)-8-azabicyclo[3.2.1]oct-8-yl]pyridine-3-carboxamide] has a pIC50 of over 6.70.
With `COc1cc(F)ccc1OC(C)(C)C(=O)N[C@H]1C[C@H]2CC[C@@H](C1)N2c1ccc(S(C)(=O)=O)cc1` [Example 222, 2-{[4-fluoro-2-(methyloxy)phenyl]oxy}-2-methyl-N-{8-[4-(methylsulfonyl)phenyl]-8-azabicyclo[3.2.1]oct-3-endo-yl}propanamide] the pIC50 was over 6.70.
For `O=C(Nc1ccc(N2[C@@H]3CC[C@H]2C[C@@H](NC(=O)C2(c4ccc(Cl)cc4)CC2)C3)nc1)C1CC1` [Example 59, 1-(4-chlorophenyl)-N-(8-{5-[(cyclopropylcarbonyl)amino]pyridin-2-yl}-8-azabicyclo[3.2.1]oct-3-endo-yl)cyclopropanecarboxamide], the pIC50 was over 6.70.
For `CC(C)(Oc1ccc(C(C)(C)O)cc1Cl)C(=O)N[C@H]1C[C@H]2CC[C@@H](C1)N2c1ccc(C(=O)NCC(F)F)cn1` [Example 471, 6-[3-endo-({2-[2-chloro-4-(2-hydroxypropan-2-yl)phenoxy]-2-methylpropanoyl}amino)-8-azabicyclo[3.2.1]oct-8-yl]-N-(2,2-difluoroethyl)pyridine-3-carboxamide], the pIC50 was over 6.70.
In the case of `CC(C)(Oc1ccc(Cl)cc1Cl)C(=O)N[C@H]1C[C@H]2CC[C@@H](C1)N2c1ccc(C(=O)NC2CCSCC2)cn1` [Example 380, 6-(3-endo-{[2-(2,4-dichlorophenoxy)-2-methylpropanoyl]amino}-8-azabicyclo[3.2.1]oct-8-yl)-N-(tetrahydro-2H-thiopyran-4-yl)pyridine-3-carboxamide], the pIC50 was over 6.70.
In the case of `CC(C)(Oc1cc(F)c(Cl)cc1Cl)C(=O)N[C@H]1C[C@H]2CC[C@@H](C1)N2c1ccc(C(N)=O)cn1` [Example 76, 6-[3-endo-({2-[(2,4-dichloro-5-fluorophenyl)oxy]-2-methylpropanoyl}amino)-8-azabicyclo[3.2.1]oct-8-yl]pyridine-3-carboxamide], the pIC50 was over 6.70.
`CC(C)(Oc1cc(C(C)(C)O)c(F)cc1Cl)C(=O)N[C@H]1C[C@H]2CC[C@@H](C1)N2c1ccc(C(=O)NCC(F)F)cn1` [Example 472, 6-[3-endo-({2-[2-chloro-4-fluoro-5-(2-hydroxypropan-2-yl)phenoxy]-2-methylpropanoyl}amino)-8-azabicyclo[3.2.1]oct-8-yl]-N-(2,2-difluoroethyl)pyridine-3-carboxamide] was tested, and the pIC50 was over 6.70.
Work on `CC(C)(Oc1ccc(Cl)cc1Cl)C(=O)N[C@H]1C[C@H]2CC[C@@H](C1)N2c1ccc(NC(=O)CC(F)(F)F)cn1` [Example 147, N-{6-[3-endo-({2-[(2,4-dichlorophenyl)oxy]-2-methylpropanoyl}amino)-8-azabicyclo[3.2.1]oct-8-yl]pyridin-3-yl}-3,3,3-trifluoropropanamide] yielded a pIC50 of over 6.70.
In the case of `CC(C)(Oc1ncc(Cl)cc1Cl)C(=O)N[C@H]1C[C@H]2CC[C@@H](C1)N2c1ccc(S(N)(=O)=O)cn1` [Example 191, N-{8-[5-(aminosulfonyl)pyridin-2-yl]-8-azabicyclo[3.2.1]oct-3-endo-yl}-2-[(3,5-dichloropyridin-2-yl)oxy]-2-methylpropanamide], the pIC50 was over 6.70.
In the case of `CC(C)(Oc1ccccc1C(F)(F)F)C(=O)N[C@H]1C[C@H]2CC[C@@H](C1)N2c1ccc(S(C)(=O)=O)cc1` [Example 257, 2-methyl-N-{8-[4-(methylsulfonyl)phenyl]-8-azabicyclo[3.2.1]oct-3-endo-yl}-2-{[2-(trifluoromethyl)phenyl]oxy}propanamide], the pIC50 was over 6.70.
With `CC(C)(Oc1ccc(F)c(Cl)c1)C(=O)N[C@H]1C[C@H]2CC[C@@H](C1)N2c1ccc(S(C)(=O)=O)cn1` [Example 226, 2-[(3-chloro-4-fluorophenyl)oxy]-2-methyl-N-{8-[5-(methylsulfonyl)pyridin-2-yl]-8-azabicyclo[3.2.1]oct-3-endo-yl}propanamide] the pIC50 was over 6.70.
Work on `C[C@H](NC(=O)c1ccc(N2C3CCC2CC(NC(=O)C(C)(C)Oc2ccc(Cl)cc2Cl)C3)nc1)C(F)(F)F` (stereo partly drawn) [Example 374, 6-(3-endo-{[2-(2,4-dichlorophenoxy)-2-methylpropanoyl]amino}-8-azabicyclo[3.2.1]oct-8-yl)-N-[(2S)-1,1,1-trifluoropropan-2-yl]pyridine-3-carboxamide] yielded a pIC50 of over 6.70.
For `CC(C)(C(=O)N[C@H]1C[C@H]2CC[C@@H](C1)N2c1ccc(C(N)=O)cn1)S(=O)(=O)c1ccc(Cl)cc1Cl` [Example 274, 6-[3-endo-({2-[(2,4-dichlorophenyl)sulfonyl]-2-methylpropanoyl}amino)-8-azabicyclo[3.2.1]oct-8-yl]pyridine-3-carboxamide], the pIC50 was over 6.70.
`O=C(NC1CC1)c1ccc(N2[C@@H]3CC[C@H]2C[C@@H](NC(=O)C2(c4ccccc4Cl)CC2)C3)nc1` [Example 17, 6-[3-endo-({[1-(2-chlorophenyl)cyclopropyl]carbonyl}amino)-8-azabicyclo[3.2.1]oct-8-yl]-N-cyclopropylpyridine-3-carboxamide] gave a pIC50 of over 6.70.
`O=C(NC1CC1)c1ccc(N2[C@@H]3CC[C@H]2C[C@@H](NC(=O)C2(Oc4ccc(Cl)cc4)CCC2)C3)nc1` [Example 47, 6-{3-endo-[({1-[(4-chlorophenyl)oxy]cyclobutyl}carbonyl)amino]-8-azabicyclo[3.2.1]oct-8-yl}-N-cyclopropylpyridine-3-carboxamide] showed a pIC50 of over 6.70.
`CC(C)(Oc1ccc(F)c(F)c1)C(=O)N[C@H]1C[C@H]2CC[C@@H](C1)N2c1ccc(S(N)(=O)=O)cn1` [Example 208, N-{8-[5-(aminosulfonyl)pyridin-2-yl]-8-azabicyclo[3.2.1]oct-3-endo-yl}-2-[(3,4-difluorophenyl)oxy]-2-methylpropanamide] gave a pIC50 of over 5.70.
Compound `CC(C)(Oc1ncc(Cl)cc1Cl)C(=O)N[C@H]1C[C@H]2CC[C@@H](C1)N2c1ccc(C(=O)NCC(F)F)cn1` [Example 408, 6-(3-endo-(2-(3,5-dichloropyridin-2-yloxy)-2-methylpropanamido)-8-azabicyclo[3.2.1]octan-8-yl)-N-(2,2-difluoroethyl)nicotinamide] has a pIC50 of over 6.70.
With `CC(C)(Oc1ccc(F)cc1F)C(=O)N[C@H]1C[C@H]2CC[C@@H](C1)N2c1ccc(C(=O)NCC(F)F)cn1` [Example 443, N-(2,2-difluoroethyl)-6-(3-endo-{[2-(2,4-difluorophenoxy)-2-methylpropanoyl]amino}-8-azabicyclo[3.2.1]oct-8-yl)pyridine-3-carboxamide] the pIC50 was over 6.70.
`COc1ccc(OC(C)(C)C(=O)N[C@H]2C[C@H]3CC[C@@H](C2)N3c2ccc(C(=O)NC3CC3)cn2)cc1` [Example 44, N-cyclopropyl-6-{3-endo-[(2-methyl-2-{[4-(methyloxy)phenyl]oxy}pro-panoyl)amino]-8-azabicyclo[3.2.1]oct-8-yl}pyridine-3-carboxamide] was tested, and the pIC50 was over 6.70.
`CC(C)(Oc1ccc(Cl)cc1)C(=O)N[C@H]1C[C@H]2CC[C@@H](C1)N2c1ccc(S(N)(=O)=O)cn1` [Example 202, N-{8-[5-(aminosulfonyl)pyridin-2-yl]-8-azabicyclo[3.2.1]oct-3-endo-yl}-2-[(4-chlorophenyl)oxy]-2-methylpropanamide] was tested, and the pIC50 was over 6.70.
Compound `CC(C)(Oc1ccc(Cl)cc1Cl)C(=O)N[C@H]1C[C@H]2CC[C@@H](C1)N2c1ccc(C(N)=O)cn1` [Example 56, 6-[3-endo-({2-[(2,4-dichlorophenyl)oxy]-2-methylpropanoyl}amino)-8-azabicyclo[3.2.1]oct-8-yl]pyridine-3-carboxamide] has a pIC50 of over 6.70.
For `CC(C)(Oc1ccc(Cl)cc1)C(=O)N[C@H]1C[C@H]2CC[C@@H](C1)N2c1ccc(S(C)(=O)=O)cn1` [Example 201, 2-[(4-chlorophenyl)oxy]-2-methyl-N-{8-[5-(methylsulfonyl)pyridin-2-yl]-8-azabicyclo[3.2.1]oct-3-endo-yl}propanamide], the pIC50 was over 6.70.
With `CS(=O)(=O)c1cccc(C2(C(=O)N[C@H]3C[C@H]4CC[C@@H](C3)N4c3ccc(C(N)=O)cn3)CC2)c1` [Example 311, 6-{3-endo-[({1-[3-(methylsulfonyl)phenyl]cyclo-propyl}carbonyl)amino]-8-azabicyclo[3.2.1]oct-8-yl}pyridine-3-carboxamide] the pIC50 was over 6.70.
With `CC(C)(Oc1cc(F)ccc1C(F)(F)F)C(=O)N[C@H]1C[C@H]2CC[C@@H](C1)N2c1ccc(C(N)=O)cn1` [Example 309, 6-{3-endo-[(2-{[5-fluoro-2-(trifluoromethyl)phenyl]oxy}-2-methylpropanoyl)amino]-8-azabicyclo[3.2.1]oct-8-yl}pyridine-3-carboxamide] the pIC50 was over 6.70.
`CC(C)(Oc1ccc(Cl)cc1C(F)F)C(=O)N[C@H]1C[C@H]2CC[C@@H](C1)N2c1ccc(C(=O)NCC(F)F)cn1` [Example 433, 6-[3-endo-({2-[4-chloro-2-(difluoromethyl)phenoxy]-2-methylpropanoyl}amino)-8-azabicyclo[3.2.1]oct-8-yl]-N-(2,2-difluoroethyl)pyridine-3-carboxamide] was tested, and the pIC50 was over 6.70.
`Cc1ccc(OC(C)(C)C(=O)N[C@H]2C[C@H]3CC[C@@H](C2)N3c2ccc(S(N)(=O)=O)cn2)c(Cl)c1` [Example 213, N-{8-[5-(aminosulfonyl)pyridin-2-yl]-8-azabicyclo[3.2.1]oct-3-endo-yl}-2-[(2-chloro-4-methylphenyl)oxy]-2-methylpropanamide] was tested, and the pIC50 was over 6.70.
`CC(C)(Oc1ccc(F)cc1Cl)C(=O)N[C@H]1C[C@H]2CC[C@@H](C1)N2c1ccc(S(C)(=O)=O)cn1` [Example 155, 2-[(2-chloro-4-fluorophenyl)oxy]-2-methyl-N-{8-[5-(methylsulfonyl)pyridin-2-yl]-8-azabicyclo[3.2.1]oct-3-endo-yl}propanamide] showed a pIC50 of over 6.70.
